From patent publication US20020159981A1, “Methods of controlling proliferation and differentiation of stem and progenitor cells” (Gamida-Cell Ltd., priority 1999, published 2002)

Assays:
[1] = tested on: Cord blood-derived CD34 cells; experiment: Long-term liquid culture of CD34 cells: proliferation, CFUc, differentiation status; format: cell-based, human
Description: Culture procedures: For the expansion of progenitor cells, CD34^+ enriched fractions or unseparated mononuclear cells were seeded at about 1-3×10^4 cells/ml in either alpha minimal essential medium containing 10% preselected fetal calf serum (FCS) (both from GIBCO, Grand Island, N.Y.), or serum-free medium (Progenitor-34 medium, Life Technologies, Grand Island, N.Y.). The media were supplemented with a mixture of growth factors and transition metal chelators. The cultures were incubated at 37° C. in an atmosphere of 5% CO2 in air with extra humidity. Half of the medium was changed weekly with fresh medium containing all the supplements.
Cloning potential evaluations: The cloning potential of cells developed in the liquid culture was assayed, at different intervals, in semi-solid medium. The cells were washed and seeded in 35 mm dishes in methylcellulose containing alpha medium supplemented with recombinant growth factors (SCF, G-CSF, GM-CSF and EPO). Following 2 weeks incubation, the cultures were scored with an inverted microscope. Colonies were classified as blast, mixed, erythroid, myeloid, and megakaryocytic, according to their cellular composition.
Morphological assessment: In order to characterize the resulting culture populations, aliquots of cells were deposited on a glass slide (cytocentrifuge, Shandon, Runcorn, UK), fixed and stained in May-Grunwald Giemsa. Other aliquots were stained by benzidine for intracellular hemoglobin.
TEPA effects on proliferation and clonability of long-term CD34^+ cultures: Long-term cultures were maintained for 3-5 weeks by weekly demi-depopulation (one half of the culture volume was removed and replaced by fresh medium and cytokines).
CD34^+ cells derived from human neonatal cord blood were purified by immunomagnetic method and then cultured in liquid medium supplemented with cytokines either with or without transition metal chelators. At weekly intervals, the cultures were demi-depopulated by removing half of the culture content (supernatant and cells) and replacing it with fresh medium, cytokines and the chelators. At the indicated weeks the cellular content of the cultures were quantified for total cells (by a manual microscopic/hemocytometric method), for CD34^+ cells (by immuno-flow cytometry) and for clonogenic cells (by cloning the cells in cytokine-supplemented semi-solid medium). The cultures were initiated with 1×10^4 cells, 50-80% of which were CD34^+ and 25-50% of which were CFUc. The results presented in FIGS. 11 to 24 were calculated per 1×10^4 initiating cells (the numbers were multiplied by the dilution factors).

Cord blood-derived cells = experiment: Preservation of stem cells: storage and separation with TEPA, then long-term culture; format: cell-based; conditions: cells stored 24 hours at 4° C. and separated with 10 μM TEPA; without TEPA 5 weeks
Description: Cord blood-derived cells were collected and stored (unseparated) for 24 hours, at 4° C., either in the presence or absence of 10 μM TEPA. CD34^+ cells were then separated using either 10 μM TEPA-PBS buffer or TEPA free PBS buffer, respectively. Then, cells were grown in long-term cultures in the presence of 10 μM TEPA.

embryonal stem cells = experiment: Embryonal stem cell culture: differentiation and proliferation; format: cell-based
Description: Thus, embryonal stem cells were cultured for 3-4 days essentially as described in (66), in the presence of LIF (20-100 ng/ml) or TEPA (10-20 μM) and their differentiation compared to non-treated control cells.

Hepatocytes = experiment: Ex-vivo expansion of hepatocytes; format: cell-based, BALB/c mice; conditions: 15 μg/ml TEPA, five weeks (FIGS. 27a-d)
Description: Hepatocytes: Livers were dissected from anesthetized BALB/c mice with sterile tools and immersed into F12 culture medium (Biological Industries, Kibbutz Bet Ha'Emek, Israel). The livers were washed three times with 3% BSA/PBS buffer and minced into small pieces with seizures. Following three washes with 3% BSA/PBS the liver tissue pieces were incubated for 30 minutes with 0.05% collagenase at 37° C. with continues shaking under 5% CO2 atmosphere. The digested liver tissue pieces were than mashed by pressing through a fine mesh strainer. After three washes with 3% BSA/PBS the liver cells were seeded into F12 culture medium enriched with: 15 mM HEPES buffer, […], 10 mM sodium bicarbonate, 0.5 u/ml insulin, 7.5 ng/ml hydrocortisone and with or without 15 μg/ml of TEPA and incubated at 37° C. in a 5% CO2 atmosphere. After overnight incubation the medium was removed and the cells were supplemented with fresh enriched F12 medium as described above with or without 15 μg/ml of TEPA. Hepatocytes were incubated in 35 mm dishes for several weeks with enriched F12 culture medium with or without 15 μg/ml TEPA at 37° C. under 5% CO2 atmosphere. Cell culture medium was replaced every week with a fresh medium.

NOD/SCID mice = experiment: Engraftment of SCID mice by ex-vivo expanded human hematopoietic cells; format: in vivo; conditions: for Engraftment Colonies: 2 weeks ex-vivo, TEPA + Cytokines
Description: Engraftment of SCID mice by ex-vivo expanded human hematopoietic cells: Cord blood purified CD34^+ cells either fresh or following 2 or 4 weeks of ex-vivo culture (plus or minus TEPA) were injected into NOD/SCID mice essentially as described in (56). After 4 weeks, the mice were sacrificed and their femora and tibias were excised and the bone marrow flushed with a syringe fitted with a 25 gauge needle. A single cell suspension was prepared, the cells were washed and an aliquot counted with Trypan blue. In order to quantitate engrafted cells of human origin, cells were stained with FITC-conjugated anti CD45 antibodies and PE-conjugated either anti CD34, CD19 or CD33 antibodies. Anti CD45 antibodies recognize human, but not mouse, cells, and thus, indicates the human origin of the cells. The proliferation and differentiation potential of the engrafted cells was assayed by cloning bone marrow cells in semi-solid medium under conditions that allow specifically growth of human derived colonies essentially as described in (56).

[2] = tested on: lethally irradiated Balb/c×C57B1/6 F1 mice; experiment: Hematopoietic reconstitution of lethally irradiated mice with ex-vivo expanded bone marrow cells; format: in vivo; conditions: compared to fresh cells or cells expanded without TEPA
Description: Hematopoietic reconstitution of lethally irradiated mice—fresh vs. ex-vivo expanded cells: Three month old female Balb/c×C57B1/6 F1 mice were lethally irradiated (1000 rad) and transplanted one day later with 1×10^5 fresh bone marrow cells or the yield of 1×10^5 bone marrow cells expanded ex-vivo either with or without TEPA for 3 to 5 weeks, as detailed in Table 7. Peripheral blood WBC counts were performed on weekly basis.

Question: `NCCNCCNCCNCCN` [TEPA, tetraethylenepentamine] was tested. Which “activity on differentiation of CD34^+ cells” value [1] did it give?
Answer: inhibit differentiation

Question: What about the “clonability in long-term cultures” value ([1]; 3-5 weeks, early or early and late cytokines, compared to cytokines only (FIGS. 3, 4)) of the same molecule?
Answer: higher clonability

Question: What about the “differentiation stimulatory effect of G-CSF and GM-CSF” value ([1]; G-CSF and GM-CSF 10 ng/ml each, CFUc frequency (FIG. 15)) of the same molecule?
Answer: blocked

Question: And the “CFUc in culture upon termination” value ([1]; after 6 weeks, started with 2.5×10^3 CFUc, TEPA 10 μM)?
Answer: 300×10^3 CFUc

Question: And the “time cultures could be maintained” value ([1]; early-acting cytokines, no stromal cells, TEPA 10 μM (FIG. 11))?
Answer: > 6 weeks

Question: And the “effectiveness among polyamine chelating agents” value ([1]; long term cultures (FIGS. 21a-b))?
Answer: more effective than the short-chain polyamines

Question: What about the “cell proliferation and generation of CFUc in long-term cultures” value ([1]; long-term cultures (FIGS. 21, 22)) of the same molecule?
Answer: support continuous cell proliferation and long-term generation of CFUc and to delay cell differentiation

Question: And the “concentrations with optimal activity” value ([1]; polyamine chelating agents, weeks 3, 4, 6, 7 (FIGS. 21a-b))?
Answer: 40 µM

Question: What about the “concentrations with optimal activity” value ([1]; transition metal chelating agents, weeks 4, 5, 7 (FIGS. 22a-b)) of the same molecule?
Answer: 10 µM

Question: And the time cultures expanded (Cord blood-derived cells)?
Answer: 8 weeks

Question: What about the “maintaining the undifferentiative phenotype of embryonal stem cells” value (embryonal stem cells) of the same molecule?
Answer: can replace LIF

Question: And the “state of hepatocytes cultures” value (Hepatocytes)?
Answer: contained many dividing and undifferentiated cells

Question: And the “Engraftment Colonies” value (NOD/SCID mice; CB 2 10% FCS (first listed))?
Answer: 330 per 2 × 10^5 SCID BM cells

Question: What about the “Engraftment Colonies” value (NOD/SCID mice; CB 3 10% FCS) of the same molecule?
Answer: 100 per 2 × 10^5 SCID BM cells

Question: And the “Engraftment Colonies” value (NOD/SCID mice; CB 6 1% FCS)?
Answer: 350 per 2 × 10^5 SCID BM cells

Question: What about the “Engraftment Colonies” value (NOD/SCID mice; CB 6 10% FCS) of the same molecule?
Answer: 420 per 2 × 10^5 SCID BM cells

Question: And the “cord blood samples that succeeded to engraft the animals” value (NOD/SCID mice; of 6 samples expanded ex-vivo, without TEPA 2 out of 6)?
Answer: 6

Question: What about the WBC recovery [2] of the same molecule?
Answer: faster
